# Measured values from US11992011B2, “Compounds for controlling plant pathogens” (VIB VZW, priority 2017, dated 2024).
# Legend:
# [1] = system: C4H enzyme; experiment: Yeast heterologous expression assay of C4H inhibition (Example 15); type: biochemical
# Procedure: Further structural analogs of the C4H inhibitor 4-iodobenzoic acid (IBA) were tested for their ability to inhibit the C4H enzyme in a yeast heterologous expression assay.
# [2] = system: Arabidopsis thaliana (ecotype Col-0) seedlings; experiment: In vitro Arabidopsis thaliana seedling growth assay (Example 15); type: in vivo; conditions: for Agravitropy ratio / Primary root length / Rosette area: 14 days old seedlings; for Agravitropy ratio / Primary root length / Rosette area / Germination rate: mean ± SD
# [3] = system: Meloidogyne incognita; experiment: M. incognita infection in DIECA-treated tomato (Example 18); type: in vivo; conditions: DIECA alone
# Procedure: Infection experiments with M. incognita were performed in the same manner as those with M. graminicola, except that plants were harvested 31 days after inoculation instead of 14 days. At this point, the plants were phenotyped by measuring the root length with a ruler and in some experiments by measuring leaf area using the EasyLeafArea software (Easlon and Bloom, 2014) and by determining shoot dry mass after 72 hours of drying in an oven at 70° C. Galls were stained and counted as described above.
# To determine whether C4H inhibitors depend on this hormonal pathway, it was tested whether tomato plants treated with the chemical inhibitor of jasmonic acid biosynthesis diethyldithiocarbamate (DIECA) (Farmer et al., 1994) still responded to PA treatment.
# [4] = system: J2 juveniles of Meloidogyne graminicola; experiment: In vitro nematode toxicity assay, M. graminicola J2 (Example 11); conditions: second experiment, C4H inhibitor 100 μM, Vertimec 0.02 v/v % abamectin, water control 93%
# Procedure: J2 juveniles of Meloidogyne graminicola and Heterodera schachtii were isolated from Echinocloa cruss-galli roots and sugar beet roots respectively. Per treatment and species combination, 300 nematodes were isolated and divided over six wells that contained 1.5 ml of either sterilized tap water, a 100 μM C4H inhibitor solution or a 0.02 v/v % solution of the nematicide abamectin (Vertimec®, Syngenta AG). The nematodes were incubated in the dark on a slow-moving rotary shaker (50 rpm) and the number of living nematodes was counted regularly using a binocular microscope.
# To rule out definitively that the compounds of the invention operate through direct toxicity to nematodes, an in vitro toxicity assay on J2 juveniles of the nematodes Meloidogyne graminicola and Heterodera schachtii was performed.
# First, survival upon exposure to the C4H inhibitor piperonylic acid (PA) was compared to a negative control (tap water) and a positive control, the commercial nematicide Vertimec (0.02% Abamectin). A detailed survival curve is shown in FIG. 12a (M. graminicola) and FIG. 12b (H. schachtii).
# In a second experiment, a broader range of C4H inhibitors were assayed in the same manner. The toxicity of piperonylic acid (PA), piperine (PIP), 4-propynyloxybenzoic acid (4PB), and 3-(4-pyridyl)acrylic acid (3PA) to J2 juveniles of Meloidogyne graminicola was compared to a negative control (tap water) and a true nematicide (Vertimec, active ingredient abamectin).
# [5] = system: Meloidogyne graminicola; experiment: Meloidogyne graminicola infection in rice cv. Kitaake, additional C4H inhibitors (Example 6); type: in vivo; conditions: foliar spray, N=8
# Procedure: (§1) Unless otherwise mentioned, all chemicals for nematode experiments were applied as a foliar spray consisting of the target compound at a concentration of 300 μM together with 0.1% (v/v) Tween 20 surfactant (Calbiochem) in distilled water. Again unless otherwise mentioned, all treatments for the nematode experiments were carried out three times: one and eight days before pathogen inoculation and seven days after pathogen inoculation. In all cases, plants were sprayed until run-off with an atomizer.
# (§2) Infection experiments with M. graminicola were performed by inoculating host plants 14 days after transfer to SAP by introducing the desired amount of J2 juveniles next to the root system using a micro pipette. Rice plants (cv. Nipponbare or Kitaake) were inoculated with 250 J2 juveniles per plant; wheat plants (cv. Sahara) were inoculated with 600 J2 juveniles per plant. Plants were harvested 14 days after inoculation. At this point, the plants were phenotyped by measuring the shoot and root length with a ruler, counting the number of adventitious roots and in some experiments by measuring leaf area using the EasyLeafArea software (Easlon and Bloom, 2014) and by determining shoot dry mass after 72 hours of drying in an oven at 70° C. Root systems were then stained in acid fuchsine as described in (Byrd et al., 1983) and left to destain in glycerol with 1 ml/l fuming HCl added for approximately ten days. The number of galls and nematodes was then counted using a binocular microscope.
# Four different C4H inhibitors were used: piperonylic acid (PA), piperine (PIP), 4-propynyloxybenzoic acid (4PB) and 3-(4-pyridyl)acrylic acid (3PA).
# [6] = system: wheat; experiment: Phytotoxicity of foliar spray in uninfected wheat (Example 1); type: in vivo, Triticum aestivum; conditions: 500 μM foliar spray, 8 plants per treatment; for Root length / Shoot length: mean ± standard deviation; for BBCH stage: median ± interquartile range
# Procedure: (§3) For Examples 1, 5 and 10, seeds of the winter wheat cultivar Sahara (Aveve Agrarisch, Landen, Belgium) were used. Seeds were washed in a 10% ethanol solution to remove any residual traces of fungicide and then germinated on wet paper at room temperature for four days; seeds were transferred to SAP tubes and placed in a growth chamber (25° C., 16 hours per day of light). Plants were watered with 8 ml of half-strength Hoagland solution every two days for the first ten days and with 8 ml of full strength Hoagland solution every two days afterwards.
# as §1
# (§4) Short-term phytotoxicity experiments (Example 1) were analyzed using non-parametric methods. For each variable, overall significance was determined using the Kruskal-Wallis test (Kruskal and Wallis, 1952), followed by a posthoc Conover-Iman test (Conover and Iman, 1981) with Hommel multiplicity correction (Hommel, 1988) if the Kruskal-Wallis test was significant. When only two groups were present, the Wilcoxon-Mann-Whitney test was used (Mann and Whitney, 1947).
# (§5) To test whether C4H inhibitors induce phytotoxic effects in crops, uninfected tomato, wheat and carrot were treated with piperonylic acid (PA), 4-iodobenzoic acid (4-IBA) and piperic acid (PIA) at a concentration of 500 μM through foliar application. At harvest, leaf area (or shoot length in the case of wheat) and primary root length were recorded. The BBCH developmental stage (Lancashire et al., 1991), a measure of developmental retardation, was used to test for effects on development. Finally, the presence of visible signs of phytotoxicity such as chlorosis, discoloration or necrosis was recorded.
# [7] = system: tomato; experiment: Phytotoxicity of foliar spray in uninfected tomato (Example 1); type: in vivo, Solanum lycopersicum; conditions: 500 μM foliar spray, 8 plants per treatment; for Leaf Area / Root length: mean ± standard deviation; for BBCH stage: median ± interquartile range
# Procedure: Tomato seeds, cv. Moneymaker (Vreeken's Zaden, Dordrecht, the Netherlands) were sown on autoclaved potting soil coveed with polyethylene film and placed at 24° C. for eight days. Seedlings were then transferred to individual SAP-filled pots and placed in a growth chamber at 24° C. Plants were watered three times per week with 25 ml of quarter-strength Hoagland solution for the first two weeks and half-strength thereafter.
# as §1, §4, §5
# [8] = system: carrot; experiment: Phytotoxicity of foliar spray in uninfected carrot (Example 1); type: in vivo, Daucus carota; conditions: 500 μM foliar spray, 8 plants per treatment; for Leaf Area: mean ± standard deviation; for BBCH stage: median ± interquartile range
# Procedure: Carrot seeds, cv. Nantes 2 (Vreeken's Zaden, Dordrecht, the Netherlands) were germinated on wet paper for seven days at 21° C. After germination, seedlings were transferred to individual pots filled with potting soil and placed in a growth chamber at 21° C.
# as §1, §4, §5
# [9] = system: Meloidogyne graminicola; experiment: Meloidogyne graminicola infection in wheat cv. Sahara (Example 5); type: in vivo; conditions: infected wheat, foliar spray
# Procedure: as §3, §1, §2
# In this experiment, the compounds PA, MDCA and 4-IBA were tested as foliar spray in the monocot staple crop wheat (Triticum aestivum, cv. Sahara) against the nematode Meloidogyne graminicola. The bacterial compound LPS (lipopolysaccharide), which is a potent inducer of the plant immune system and a known priming agent (Desaki et al., 2006), was also included as a positive control.
# [10] = system: spring wheat (Triticum aestivum cv. Fielder); experiment: Yield and fertility in pathogen-free spring wheat (Example 2); conditions: 300 μM foliar spray three times; vs. control
# Procedure: For Example 2, the spring wheat cultivar Fielder was used. Seeds were obtained from plants grown in the greenhouse complex of the VIB (Zwijnaarde, Belgium). Seeds were sown directly in potting soil (four seeds to a pot, thinned to three plants per pot after emergence) and placed in a growth chamber at 21° C. with 16 hours per day of light. These plants were grown until harvest; they were sprayed three times with the compounds of the invention at a concentration of 300 μM using the protocol described in the chemicals section. Spraying took place 14 and 21 days after emergence and a final time at heading.
# In all cases model assumptions were verified using diagnostic plots (residuals, QQ-plot, scale-location and residuals-leverage). Outliers were removed only if they were outliers both in the statistical sense and if there was a biological reason for removal (e.g. the plant was stunted or developed a secondary infection).
# To determine the effects of C4H inhibition on yield and fertility, spring wheat (Triticum aestivum cv. Fielder) was grown in a pathogen-free growth chamber until maturity and treated with a control or C4H inhibitor-containing foliar spray at regular intervals. At harvest, the number of ears per plant, the seed mass, the size of the seeds and the germination ability of the freshly harvested seeds were measured. Seed size was measured using the stacking density of the seed as a proxy measure; if a given seed mass takes up a greater volume, then the individual seeds must be larger.
compound,measurement,setting,value
"O=C(O)c1ccc(C(F)(F)F)cc1 [CF3-BA, 4-trifluoromethylbenzoic acid]",C4H inhibitor activity,[1],significant C4H inhibitor activity
same,Agravitropy ratio,[2]; 50 μM,0.79 ± 0.15
same,Primary root length,[2]; 50 μM,0.42 ± 0.14 cm
same,Rosette area,[2]; 50 μM,0.16 ± 0.06 cm^2
same,Germination rate,[2]; 50 μM,0.95 ± 0.22
same,Agravitropy ratio,[2]; 100 μM,0.81 ± 0.10
same,Primary root length,[2]; 100 μM,0.41 ± 0.14 cm
same,Rosette area,[2]; 100 μM,0.15 ± 0.09 cm^2
same,Germination rate,[2]; 100 μM,0.84 ± 0.37
same,seedling phenotype compared with IBA,[2]; seedlings grown on amended medium,identical phenotype to those grown on medium containing IBA
"CCN(CC)C(=S)S [DIECA, diethyldithiocarbamate, reference compound]","change of number of galls, DIECA-treated tomato plants vs wild type",[3],+26%
"O=C(O)/C=C/c1ccncc1 [Formula 3PA, 3-(4-pyridyl)-acrylic acid]",survival at the end of the experiment,[4],93%
same,reduction in the number of galls compared to the control group,[5],−47%
"O=C(O)c1ccc(I)cc1 [Formula 4-IBA, 4-iodobenzoic acid]",Root length,[6],14.36 ± 2.78 cm
same,Shoot length,[6],31.93 ± 3.38 cm
same,BBCH stage,[6],13 ± 0
same,Leaf Area,[7],8.92 ± 1.91 cm^2
same,Root length,[7],7.40 ± 0.79 cm
same,BBCH stage,[7],102.5 ± 1.0
same,Leaf Area,[8],5.05 ± 1.35 cm^2
same,BBCH stage,[8],13 ± 0
same,survival at the end of the experiment,[4],89%
same,Number of galls per AR,[9]; n = 9,2.7 ± 0.8
same,Number of galls,"[9]; per root system, n = 9",27.8 ± 7.5
same,reduction in gall numbers,[9]; vs control,−27%
same,Agravitropy ratio,[2]; 50 μM,0.78 ± 0.17
same,Primary root length,[2]; 50 μM,0.43 ± 0.15 cm
same,Rosette area,[2]; 50 μM,0.10 ± 0.06 cm^2
same,Germination rate,[2]; 50 μM,0.88 ± 0.34
same,Agravitropy ratio,[2]; 100 μM,0.82 ± 0.11
same,Primary root length,[2]; 100 μM,0.28 ± 0.07 cm
same,Rosette area,[2]; 100 μM,0.05 ± 0.01 cm^2
same,Germination rate,[2]; 100 μM,0.84 ± 0.37
"C#CCOc1ccc(C(=O)O)cc1 [Formula 4PB, 4-propynyloxybenzoic acid]",C4H inhibitor activity,[1],significant C4H inhibitor activity
same,survival at the end of the experiment,[4],91%
same,reduction in the number of galls compared to the control group,[5],−44%
"O=C(O)/C=C/C=C/c1ccc2c(c1)OCO2 [PIA, Piperic acid]",Root length,[6],14.57 ± 1.24 cm
same,Shoot length,[6],31.07 ± 4.82 cm
same,BBCH stage,[6],13 ± 0
same,Leaf Area,[7],12.21 ± 1.66 cm^2
same,Root length,[7],8.24 ± 1.90 cm
same,BBCH stage,[7],103 ± 1.0
same,Leaf Area,[8],4.78 ± 0.85 cm^2
same,BBCH stage,[8],13 ± 0
"O=C(/C=C/C=C/c1ccc2c(c1)OCO2)N1CCCCC1 [piperine, Piperine]",Total yield (seed mass),[10],small but statistically significant increase
same,germination after fourteen days of freshly harvested seeds,[10],not significantly different
same,mean number of ears per plant,[10],the same in all treatments
same,seed size (stacking density),[10],no effect
same,survival at the end of the experiment,[4],91%
same,reduction in the number of galls compared to the control group,[5],−33%
